Measured values as given in ChEMBL document CHEMBL5370686, “Design of Novel Series of Antimalarial PMX Inhibitors with Increased Half-Life via Molecular Property Optimization” (ACS Med Chem Lett, 2023).
Converted amounts (≈) assume the structure as drawn.

How the values were obtained:
[1] = test system: Cathepsin D versus Plasmepsin X; test: Selectivity ratio of IC50 for human Cathepsin D to IC50 for Plasmodium falciparum Plasmepsin X; format: toxicity; details: read-out: Ratio IC50
[2] = Lipophilicity, log D of the compound in octanol/phosphate buffer at pH 7.4 incubated for 90 mins by shake flask method based LC-MS analysis; format: physicochemical; details: for logD at 1.5 h: octanol/phosphate buffer, pH 7.4
[3] = Solubility of compound in FeSSIF at pH 5.8 incubated for 1 hr by LC/MS analysis; format: physicochemical
Plasmodium falciparum = test: Antimalarial activity against Plasmodium falciparum 3D7 by SYBR green 1 assay; format: functional, organism-based; details: for IC50: Plasmodium falciparum, 3D7
[4] = Intrinsic clearance in human hepatocytes assessed per 10^6 cells at 0.5 uM measured after 120 min by HRMS method; format: ADME, cell-based, Hepatocyte; details: read-out: CLH
Plasmepsin X = Plasmepsin X (Plasmodium falciparum (isolate 3D7), UniProt Q8IAS0); test: Inhibition of Plasmodium falciparum Plasmepsin X using Dabcyl-GSMLEVENDAEG-EDANS as substrate preincubated for 30 mins followed by substrate addition and measured every 2 mins for 30 mins by FRET assay
[5] = Apparent oral bioavailability in Sprague-Dawley rat plasma at 10 mg/kg administered via gavage by LC-MS/MS analysis; format: ADME, organism-based; details: read-out: Fapp
Cathepsin D = Cathepsin D (Homo sapiens, UniProt P07339); test: Inhibition of human Cathepsin D using Mca-GKPILFFRLK(Dnp)-D-R-NH2 as substrate preincubated for 30 mins followed by substrate addition and measured after 60 mins by FRET assay; format: toxicity
[6] = Drug level treated with (S)-6-(2,3'-dichloro-[1,1'-biphenyl]-3-yl)-2-imino-6-methyl-3-((2S,4S)-2-methyltetrahydro-2H-pyran-4-yl)tetrahydropyrimidin-4(1H)-one in human hepatocytes at 2 uM measured after 120 mins by UHPLC-MS analysis; format: ADME, cell-based, Hepatocyte
[7] = AUC in Sprague-Dawley rat plasma at 10 mg/kg, po administered via gavage by LC-MS/MS analysis; format: ADME, organism-based; design: dose 10 mg/kg, route po
[8] = Volume of distribution at steady state in Sprague-Dawley rat plasma at 1 mg/kg, iv administered via bolus by LC-MS/MS analysis; format: ADME, organism-based; details: read-out: Vdss
[9] = Clearance in Sprague-Dawley rat plasma at 1 mg/kg, iv administered via bolus by LC-MS/MS analysis; format: ADME, organism-based
[10] = Cmax in Sprague-Dawley rat plasma at 10 mg/kg, po administered via gavage by LC-MS/MS analysis; format: ADME, organism-based; design: dose 10 mg/kg, route po
[11] = Half-life in Sprague-Dawley rat plasma at 1 mg/kg, iv administered via bolus at LC-MS/MS analysis; format: ADME, organism-based
[12] = AUC in Sprague-Dawley rat plasma at 1 mg/kg, iv administered via bolus at LC-MS/MS analysis; format: ADME, organism-based; design: dose 1 mg/kg, route iv
[13] = Tmax in Sprague-Dawley rat plasma at 10 mg/kg, po administered via gavage by LC-MS/MS analysis; format: ADME, organism-based
[14] = Drug metabolism in human hepatocytes at 2 uM measured after 120 mins by UHPLC-MS analysis; format: ADME, cell-based, Hepatocyte; details: 2 h
[15] = Drug metabolism in human hepatocytes assessed as (S)-4-(2,3'-dichloro-[1,1'-biphenyl]-3-yl)-4-methyltetrahydropyrimidin-2(1H)-imine formation at 2 uM measured after 120 mins by UHPLC-MS analysis; format: ADME, cell-based, Hepatocyte; details: 2 h

Plasmepsin X, sequence (Q8IAS0 whole entry): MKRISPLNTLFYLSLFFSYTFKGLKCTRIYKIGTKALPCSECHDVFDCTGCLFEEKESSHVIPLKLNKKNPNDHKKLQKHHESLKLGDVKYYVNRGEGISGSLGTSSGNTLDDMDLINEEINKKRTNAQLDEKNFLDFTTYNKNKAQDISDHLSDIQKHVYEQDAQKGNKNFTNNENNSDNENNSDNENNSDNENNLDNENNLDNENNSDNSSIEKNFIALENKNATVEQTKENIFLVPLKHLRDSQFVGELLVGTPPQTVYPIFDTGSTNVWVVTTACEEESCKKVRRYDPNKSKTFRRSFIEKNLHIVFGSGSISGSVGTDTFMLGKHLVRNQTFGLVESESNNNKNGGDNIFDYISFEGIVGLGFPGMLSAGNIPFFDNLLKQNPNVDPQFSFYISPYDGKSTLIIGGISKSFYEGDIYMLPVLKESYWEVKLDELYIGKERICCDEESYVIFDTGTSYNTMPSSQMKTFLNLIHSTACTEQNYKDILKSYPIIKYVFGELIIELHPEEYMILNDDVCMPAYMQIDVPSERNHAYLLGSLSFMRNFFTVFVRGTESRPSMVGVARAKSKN
Cathepsin D, sequence (P07339 65-162 limits assumed): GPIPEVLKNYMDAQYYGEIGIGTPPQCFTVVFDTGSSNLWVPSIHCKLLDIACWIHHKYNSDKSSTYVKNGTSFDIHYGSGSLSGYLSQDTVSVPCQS
Cathepsin D, sequence (P07339 169-412 limits assumed): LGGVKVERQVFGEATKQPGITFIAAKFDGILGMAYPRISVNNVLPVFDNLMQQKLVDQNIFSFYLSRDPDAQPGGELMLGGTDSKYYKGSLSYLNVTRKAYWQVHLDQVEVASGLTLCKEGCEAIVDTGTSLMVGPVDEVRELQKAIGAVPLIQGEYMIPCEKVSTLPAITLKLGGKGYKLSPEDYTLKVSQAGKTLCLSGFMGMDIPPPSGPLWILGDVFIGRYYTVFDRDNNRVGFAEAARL

| Compound | selectivity ratio [1] | logD at 1.5 h [2] | solubility at 1 h [3] [µM] | FIC50 (Plasmodium falciparum) [nM] | IC50 (Plasmodium falciparum) [µM] | hepatocyte CLint at 0.5 µM [4] [µL/min/1e6 cells] | IC50 (Plasmepsin X) [µM] | bioavailability [5] [%] | IC50 (Cathepsin D) [µM] | logD ([2]; octanol/water, pH 7.4, 1.5 h, BLD = below limit of detection) | Drug uptake [6] | AUC [7] [µM·h] | Vd [8] [L/kg] | clearance [9] [L/h/kg] | Cmax [10] [µM] | half-life [11] [h] | AUC [12] [µM·h] | Tmax [13] [h] | Drug metabolism [14] | Drug metabolism [15] |
| --- | --- | --- | --- | --- | --- | --- | --- | --- | --- | --- | --- | --- | --- | --- | --- | --- | --- | --- | --- | --- |
| C[C@H]1C[C@@H](N2C(=N)N[C@](C)(c3cccc(NC(=O)c4cccc(C#N)c4)c3Cl)CC2=O)CCO1 | 555 | 1.3 | 1020 (≈ 490 µg/mL) | 7.7 | 0.0083 | 4 | 0.0076 | 18 |  |  |  |  |  |  |  |  |  |  |  |  |
| C[C@@H]1C[C@H](N2C(=N)N[C@](C)(c3cccc(-c4cccc(Cl)c4)c3Cl)CC2=O)CC[C@@H]1O | 4.7 | 3.5 | > 1500 | 40.9 | 0.246 | 25 | 0.0099 |  | 0.0473 |  |  |  |  |  |  |  |  |  |  |  |
| C[C@H]1C[C@@H](N2C(=N)N[C@](C)(c3cccc(-c4ccc(OC(F)(F)F)cc4Cl)c3Cl)CC2=O)CCO1 | 176 |  | 833 (≈ 442 µg/mL) | 0.8 | 0.0781 | < 3 | 0.0095 |  | 1.59 | Bld |  |  |  |  |  |  |  |  |  |  |
| C[C@H]1C[C@@H](N2C(=N)N[C@](C)(c3cccc(-c4ccc(Cl)cc4Cl)c3Cl)CC2=O)CCO1 | 154 | 3.4 | 69 (≈ 33.2 µg/mL) | 3.5 | 0.0662 | 5.7 | 0.0052 |  | 0.771 |  |  |  |  |  |  |  |  |  |  |  |
| C[C@H]1C[C@@H](N2C(=N)N[C@](C)(c3cccc(-c4ccc(C5CC5)nc4)c3Cl)CC2=O)CCS1(=O)=O | 206 | 2 |  | 27.1 | 0.0875 | < 3 | 0.0128 |  | 2.68 |  |  |  |  |  |  |  |  |  |  |  |
| C[C@H]1C[C@@H](N2C(=N)N[C@](C)(c3cccc(-c4ccc5ncn(CC(F)(F)F)c5c4)c3Cl)CC2=O)CCO1 | 0.3 | 2.5 | 378 (≈ 202 µg/mL) | 12.4 | 0.0261 | 46 | 0.0112 |  | 0.0039 |  |  |  |  |  |  |  |  |  |  |  |
| C[C@H]1C[C@@H](N2C(=N)N[C@](C)(c3cccc(-c4ccccc4Cl)c3Cl)CC2=O)CCO1 | 204 | 3 | 562 (≈ 251 µg/mL) | 28.4 | 0.105 | 29 | 0.0109 |  | 2.25 |  |  |  |  |  |  |  |  |  |  |  |
| C[C@@]1(c2cccc(-c3cccc(Cl)c3)c2Cl)CC(=O)N([C@H]2CCOC[C@@H]2O)C(=N)N1 | 3.9 | 2.4 | 1390 (≈ 624 µg/mL) | 135.6 | 0.323 | 8.2 | 0.0565 |  | 0.226 |  |  |  |  |  |  |  |  |  |  |  |
| C[C@@]1(c2cccc(-c3ccc(F)cc3F)c2Cl)CC(=O)N([C@H]2CCC(F)(F)[C@@H](O)C2)C(=N)N1 | 17 | 2.4 |  | 32.5 | 0.28 | 4.7 | 0.0233 |  | 0.396 |  |  |  |  |  |  |  |  |  |  |  |
| C[C@H]1C[C@@H](N2C(=N)N[C@](C)(c3cccc(-c4cncc(Cl)c4)c3Cl)CC2=O)CCO1 | 3.5 | 2.5 | > 1500 | 15.2 | 0.0216 | 75 | 0.0088 |  | 0.0323 |  |  |  |  |  |  |  |  |  |  |  |
| C[C@@]1(c2cccc(-c3cccc(Cl)c3)c2Cl)CCNC(=N)N1 |  |  |  |  |  |  |  |  |  |  | Active |  |  |  |  |  |  |  |  |  |
| C[C@H]1C[C@@H](N2C(=N)N[C@](C)(c3cccc(-c4ccc(F)cc4F)c3Cl)CC2=O)CCS1(=O)=O | 36.5 | 2.4 | 1130 (≈ 558 µg/mL) | 16.7 | 0.0741 | 3.3 | 0.0102 |  | 0.366 |  |  |  |  |  |  |  |  |  |  |  |
| C[C@H]1C[C@@H](N2C(=N)N[C@](C)(c3cccc(-c4ccc(OC(F)(F)F)nc4)c3Cl)CC2=O)CCS1(=O)=O | 140 | 2.4 | 697 (≈ 380 µg/mL) | 27.9 | 0.107 | < 3 | 0.0112 | 29 | 1.54 |  |  | 4.68 | 13.1 | 1.2 | 0.423 | 9.2 | 1.6 | 4 |  |  |
| C[C@H]1C[C@@H](N2C(=N)N[C@](C)(c3cccc(-c4cnn5cccnc45)c3Cl)CC2=O)CCO1 | 59 | 1.2 | > 1500 | 131.3 | 0.137 | 18 | 0.0224 |  | 1.29 |  |  |  |  |  |  |  |  |  |  |  |
| C[C@H]1C[C@@H](N2C(=N)N[C@](C)(c3cccc(-c4cccc(Cl)c4)c3Cl)CC2=O)CCO1 | 1.3 | 3.7 | 664 (≈ 296 µg/mL) | 16.2 | 0.0923 | 26 | 0.0077 |  | 0.0108 |  |  |  |  |  |  |  |  |  | Metabolite_Detected | Metabolite_Detected |
| C[C@H]1C[C@@H](N2C(=N)N[C@](C)(c3cccc(-c4ccc(F)cc4F)c3Cl)CC2=O)CCN1C | 14.5 | 1.8 | > 1500 | 37.4 | 0.0935 | 8.2 | 0.263 |  | 3.82 |  |  |  |  |  |  |  |  |  |  |  |
| C[C@H]1C[C@@H](N2C(=N)N[C@](C)(c3cccc(-c4ccc(OC(F)F)nc4)c3Cl)CC2=O)CCS1(=O)=O | 53.9 | 2.1 | 1030 (≈ 543 µg/mL) | 23.4 | 0.0849 | < 3 | 0.0108 |  | 0.593 |  |  |  |  |  |  |  |  |  |  |  |
| CN(C)[C@H]1C[C@@H](N2C(=N)N[C@](C)(c3cccc(-c4ccc(F)cc4F)c3Cl)CC2=O)C1 | 12.5 | 1.5 | > 1500 | 251.5 | 0.657 | 16 | 2.26 |  | 28.3 |  |  |  |  |  |  |  |  |  |  |  |
| C[C@H]1C[C@@H](N2C(=N)N[C@](C)(c3cccc(-c4ccc(F)cc4F)c3Cl)CC2=O)CCO1 | 71 | 2.9 | 1010 (≈ 451 µg/mL) | 21.3 | 0.095 | 18 | 0.0094 |  | 0.644 |  |  |  |  |  |  |  |  |  |  |  |
